Data from article PMC5936891, “A focused library synthesis and cytotoxicity of quinones derived from the natural product bolinaquinone” (Royal Society Open Science, 2018).

Legend:
HT29 (colon carcinoma) = assay: MTT in vitro growth inhibition assay, HT29; assay type: cell-based; conditions: Homo sapiens; for inhibition at 25 µM: HT-29, 25 µM of drug, 72 h, read-out: Percentage of Cell Growth Inhibition HT29; for GI50: HT-29, 72 h drug exposure
From the text: (§1) With the desired bolinaquinone analogues 12–43 in hand, we examined their cytotoxicity against a panel of 11 tumour cell lines: HT29 (colon carcinoma), U87 and SJ-G2 (glioblastoma), MCF-7 (breast carcinoma), A2780 (ovarian carcinoma), H460 (lung carcinoma), A431 (skin carcinoma), Du145 (prostate carcinoma), BE2-C (neuroblastoma), MIA (pancreatic carcinoma), SMA (spontaneous murine astrocytoma) and a normal breast cell line (MCF10A). The inclusion of the MCF-10A cell line allowed a determination of a crude measure of relative toxicity while noting that the ultimate arbiter of toxicity requires in vivo evaluation. All analogues were initially screened at a 25 µM drug concentration.
(§2) Stock solutions were prepared as follows and stored at −20°C: drugs were stored as 40 mM solutions in DMSO. All cell lines were cultured in a humidified atmosphere 5% CO2 at 37°C. The cancer cell lines were maintained in Dulbecco's modified Eagle's medium (DMEM) (Trace Biosciences, Australia) supplemented with 10% fetal bovine serum, 10 mM sodium bicarbonate, penicillin (100 IU ml^−1), streptomycin (100 µg ml^−1) and glutamine (4 mM). The non-cancer MCF10A cell line was cultured in DMEM:F12 (1 : 1) cell culture media, 5% heat-inactivated horse serum, supplemented with penicillin (50 IU ml^−1), streptomycin (50 µg ml^−1), 20 mM Hepes, L-glutamine (2 mM), epidermal growth factor (20 ng ml^−1), hydrocortisone (500 ng ml^−1), cholera toxin (100 ng ml^−1) and insulin (10 ug ml^−1).
(§3) Cells in logarithmic growth were transferred to 96-well plates. Cytotoxicity was determined by plating cells in duplicate in 100 µl medium at a density of 2500–4000 cells per well. On day 0 (24 h after plating), when the cells were in logarithmic growth, 100 μl of medium with or without the test agent was added to each well. After 72 h, drug exposure growth inhibitory effects were evaluated using the MTT (3-[4,5-dimethylthiazol-2-yl]-2,5-diphenyl-tetrazolium bromide) assay and the absorbance read at 540 nm. Percentage growth inhibition was determined at a fixed drug concentration of 25 µM. A value of 100% is indicative of complete cell growth inhibition. Those analogues showing appreciable percentage growth inhibition underwent further dose–response analysis allowing for the calculation of a GI50 value. This value is the drug concentration at which cell growth is 50% inhibited based on the difference between the optical density values on day 0 and those at the end of drug exposure.

U87 (glioblastoma) = assay: MTT in vitro growth inhibition assay, U87; assay type: cell-based; conditions: for inhibition at 25 µM: 25 µM of drug, 72 h, read-out: Percentage of Cell Growth Inhibition U87; for GI50: 72 h drug exposure
From the text: as §1, §2, §3

MCF-7 (breast carcinoma) = assay: MTT in vitro growth inhibition assay, MCF-7; assay type: cell-based; conditions: Homo sapiens; for inhibition at 25 µM: MCF7, 25 µM of drug, 72 h, read-out: Percentage of Cell Growth Inhibition MCF-7; for GI50: MCF7, 72 h drug exposure
From the text: as §1, §2, §3

[1] = system: A2780 (ovarian carcinoma); assay: MTT in vitro growth inhibition assay, A2780; assay type: cell-based; conditions: Homo sapiens; for inhibition at 25 µM: 25 µM of drug, 72 h, read-out: Percentage of Cell Growth Inhibition A2780; for GI50: 72 h drug exposure
From the text: as §1, §2, §3

H460 (lung carcinoma) = assay: MTT in vitro growth inhibition assay, H460; assay type: cell-based; conditions: Homo sapiens; for inhibition at 25 µM: NCI-H460, 25 µM of drug, 72 h, read-out: Percentage of Cell Growth Inhibition H460; for GI50: NCI-H460, 72 h drug exposure
From the text: as §1, §2, §3

A431 (skin carcinoma) = assay: MTT in vitro growth inhibition assay, A431; assay type: cell-based; conditions: Homo sapiens; for inhibition at 25 µM: A-431, 25 µM of drug, 72 h, read-out: Percentage of Cell Growth Inhibition A431; for GI50: A-431, 72 h, 72 h drug exposure
From the text: as §1, §2, §3

[2] = system: Du145 (prostate carcinoma); assay: MTT in vitro growth inhibition assay, Du145; assay type: cell-based; conditions: Homo sapiens; for inhibition at 25 µM: DU-145, 25 µM of drug, 72 h, read-out: Percentage of Cell Growth Inhibition Du145
From the text: as §1, §2, §3

BE2-C (neuroblastoma) = assay: MTT in vitro growth inhibition assay, BE2-C; assay type: cell-based; conditions: Homo sapiens, BE(2)-C, 72 h; for inhibition at 25 µM: 25 µM of drug, read-out: Percentage of Cell Growth Inhibition BE2-C; for GI50: 72 h drug exposure
From the text: as §1, §2, §3

SJ-G2 (glioblastoma) = assay: MTT in vitro growth inhibition assay, SJ-G2; assay type: cell-based; conditions: for inhibition at 25 µM: 25 µM of drug, 72 h, read-out: Percentage of Cell Growth Inhibition SJ-G2; for GI50: 72 h drug exposure
From the text: as §1, §2, §3

[3] = system: MIA (pancreatic carcinoma); assay: MTT in vitro growth inhibition assay, MIA; assay type: cell-based; conditions: for inhibition at 25 µM: 25 µM of drug, 72 h, read-out: Percentage of Cell Growth Inhibition MIA; for GI50: 72 h drug exposure
From the text: as §1, §2, §3

[4] = system: SMA (spontaneous murine astrocytoma); assay: MTT in vitro growth inhibition assay, SMA; assay type: cell-based; conditions: Mus musculus; for inhibition at 25 µM: 25 µM of drug, 72 h, read-out: Percentage of Cell Growth Inhibition SMA; for GI50: 72 h drug exposure
From the text: as §1, §2, §3

[5] = system: MCF10A (normal breast cell line); assay: MTT in vitro growth inhibition assay, MCF10A; assay type: cell-based; conditions: Homo sapiens, MCF-10A; for inhibition at 25 µM: 25 µM of drug, 72 h, read-out: Percentage of Cell Growth Inhibition MCF10A; for GI50: normal breast cell line, 72 h drug exposure
From the text: as §1, §2, §3

Compound | inhibition at 25 µM (HT29 (colon carcinoma)) [%] | inhibition at 25 µM (U87 (glioblastoma)) [%] | inhibition at 25 µM (MCF-7 (breast carcinoma)) [%] | inhibition at 25 µM [1] [%] | inhibition at 25 µM (H460 (lung carcinoma)) [%] | inhibition at 25 µM (A431 (skin carcinoma)) [%] | inhibition at 25 µM [2] [%] | inhibition at 25 µM (BE2-C (neuroblastoma)) [%] | inhibition at 25 µM (SJ-G2 (glioblastoma)) [%] | inhibition at 25 µM [3] [%] | inhibition at 25 µM [4] [%] | inhibition at 25 µM [5] [%] | melting point [°C] | GI50 (MCF-7 (breast carcinoma)) [µM] | GI50 [1] [µM] | GI50 (BE2-C (neuroblastoma)) [µM] | GI50 (SJ-G2 (glioblastoma)) [µM] | GI50 [4] [µM] | GI50 [5] [µM] | other results
CCCNC1=CC(=O)C(NCCC)=C(c2ccc(C)cc2)C1=O [compound 38, 2,5-Bis(propylamino)3-p-tolylcyclohexa-2,5-diene-1,4-dione] | 59 ± 4 | 67 ± 5 | 57 ± 3 | 63 ± 4 | 51 ± 2 | 81 ± 0.3 | 56 ± 2 | 28 ± 12 | 50 ± 2 | 67 ± 3 | 73 ± 1 | 69 ± 3 | 166 to 168 |  |  |  |  |  |  | 
COC1=CC(=O)C(OC)=C(c2ccccc2-c2ccccc2)C1=O [compound 29, 3-Biphenyl-2-yl-2,5-dimethoxycyclohexa-2,5-diene-1,4-dione] | 15 ± 1 | 14 ± 4 | 27 ± 5 | 77 ± 5 | 10 ± 4 | 14 ± 3 | 10 ± 2 | > 100 | 38 ± 9 | < 10 | 72 ± 9 | 21 ± 8 | 186 to 188 | 28 ± 2.6 | 17 ± 1.2 | 11 | 31 ± 0.58 | 20 ± 1.7 | 36 ± 3.8 | 
CCCNC1=CC(=O)C(NCCC)=C(c2cccc3ccccc23)C1=O [compound 39, 3-(Naphthalene-1-yl)-2,5-bis-(propylamino)cyclohexa-2,5-diene-1,4-dione] | 76 ± 2 | 75 ± 1 | 69 ± 1 | 78 ± 2 | 59 ± 3 | 76 ± 3 | 75 ± 1 | 73 ± 3 | 59 ± 1 | 69 ± 2 | 54 ± 11 | 78 ± 1 | 134 to 137 |  |  |  |  |  |  | 
CCCNC1=C(c2ccccc2)C(=O)C(NCCC)=C(c2cccc3ccccc23)C1=O [compound 42, 2-(Naphthalene-1-yl)-5-phenyl-3,6-bis-(propylamino)cyclohexa-2,5-diene-1,4-dione] | 71 ± 3 | 69 ± 4 | 77 ± 4 | 79 ± 1 | 63 ± 3 | 81 ± 1 | 70 ± 3 | 56 ± 4 | 52 ± 1 | 76 ± 2 | 56 ± 9 | 76 ± 1 | 226 to 228 |  |  |  |  |  |  | 
CCCCc1ccc(C2=C(OC)C(=O)C(c3ccc4ccccc4c3)=C(OC)C2=O)cc1 [compound 35, 2-(4-Butylphenyl)-3,6-dimethoxy-5-(naphthalene-3-yl)cyclohexa-2,5-diene-1,4-dione] | 59 ± 3 | 38 ± 2 | 87 ± 1 | 66 ± 1 | 61 ± 3 | 49 ± 3 | 56 ± 2 | 61 ± 2 | 67 ± 4 | 61 ± 2 | 79 ± 5 | 47 ± 5 | 134 to 136 | 10 ± 0.6 | 14 ± 2 | 23 ± 3.2 | 16 ± 2.2 | 8.2 ± 0.8 | 26 ± 4.8 | GI50 (HT29 (colon carcinoma)): 21 ± 2.6 µM; GI50 (U87 (glioblastoma)): 42 ± 2.8 µM; GI50 (H460 (lung carcinoma)): 19 ± 0.6 µM; GI50 (A431 (skin carcinoma)): 26 ± 4.8 µM; GI50 ([2]; DU-145, 72 h, 72 h drug exposure): 19 ± 1 µM; GI50 [3]: 18 ± 1.2 µM
COC1=C(c2ccccc2)C(=O)C(OC)=C(c2cccc3ccccc23)C1=O [compound 32, 2,5-Dimethoxy-3-(naphthalen-1-yl)-6-phenylcyclohexa-2,5-diene-1,4-dione] | 15 ± 4 | 19 ± 2 | 22 ± 2 | 60 ± 17 | 20 ± 8 | 17 ± 2 | 18 ± 4 | 27 ± 15 | 19 ± 3 | 13 ± 1 | 58 ± 13 | 58 ± 15 | 168 to 170 |  |  |  |  |  |  | 
COC1=CC(=O)C(OC)=C(c2ccc(OC)cc2OC)C1=O [compound 20, 2,5-Dimethoxy-3-(2,4-dimethoxyphenyl)cyclohexa-2,5-diene-1,4-dione] | 15 ± 2 | 17 ± 3 | 20 ± 3 | 48 ± 9 | 10 ± 5 | 11 ± 4 | < 10 | > 100 | 32 ± 6 | < 10 | 35 ± 8 | 14 ± 6 |  | 34 ± 3 | 25 ± 3 | ~11 | 31 ± 1.5 | 33 ± 3.5 | 38 ± 5 | 
COC1=CC(=O)C(OC)=C(c2ccc(C)cc2)C1=O [compound 13, 2,5-Dimethoxy-3-p-tolylcyclohexa-2,5-diene-1,4-dione] | 10 ± 4 | 13 ± 4 | 23 ± 3 | 72 ± 10 | 13 ± 3 | < 10 | 13 ± 2 | > 100 | 41 ± 18 | < 10 | 45 ± 9 | 10 ± 5 |  | 37 ± 1 | 20 ± 1.2 | 12 ± 1.2 | 33 ± 1.9 | 33 ± 2.3 | 50 ± 9.2 | GI50 (HT29 (colon carcinoma)): > 50 µM; GI50 (U87 (glioblastoma)): > 50 µM; GI50 (H460 (lung carcinoma)): > 50 µM; GI50 (A431 (skin carcinoma)): > 50 µM; GI50 [3]: > 50 µM
COC1=CC(=O)C(OC)=C(c2ccc(O)cc2)C1=O [compound 16, 3-(4-Hydroxyphenyl)-2,5-dimethoxycyclohexa-2,5-diene-1,4-dione] | 11 ± 3 | < 10 | 15 | < 10 | < 10 | > 100 | 21 ± 6 | < 10 | 21 ± 9 | < 10 |  |  |  |  | 35 ± 1.9 | ~11 | 43 ± 1.5 | 50 ± 3.2 |  | 
